Laboratory results reported in paper PMC9029360, “Cyclooxygenase-Inhibiting Platinum(IV) Prodrugs with Potent Anticancer Activity” (Pharmaceutics, 2022).
Where two headings read alike, the source gives them in different places.

Experiments:
U87 glioblastoma [1] = assay: In vitro cytotoxicity MTT assay, U87 glioblastoma; type: cell-based; settings: 72 h drug exposure, n = 3
A2780 ovarian [2] = assay: In vitro cytotoxicity MTT assay, A2780 ovarian; type: cell-based; settings: Homo sapiens, 72 h drug exposure, n = 3
SJ-G2 glioblastoma [3] = assay: In vitro cytotoxicity MTT assay, SJ-G2 glioblastoma; type: cell-based; settings: 72 h drug exposure, n = 3
H460 lung [4] = assay: In vitro cytotoxicity MTT assay, H460 lung; type: cell-based; settings: Homo sapiens, NCI-H460, 72 h drug exposure, n = 3
human COX-2 [5] = biological target: T1, human COX-2 (Homo sapiens, UniProt P35354); assay: biochemical; settings: read-out: COX-2 inhibition
T1 sequence (P35354 18-604): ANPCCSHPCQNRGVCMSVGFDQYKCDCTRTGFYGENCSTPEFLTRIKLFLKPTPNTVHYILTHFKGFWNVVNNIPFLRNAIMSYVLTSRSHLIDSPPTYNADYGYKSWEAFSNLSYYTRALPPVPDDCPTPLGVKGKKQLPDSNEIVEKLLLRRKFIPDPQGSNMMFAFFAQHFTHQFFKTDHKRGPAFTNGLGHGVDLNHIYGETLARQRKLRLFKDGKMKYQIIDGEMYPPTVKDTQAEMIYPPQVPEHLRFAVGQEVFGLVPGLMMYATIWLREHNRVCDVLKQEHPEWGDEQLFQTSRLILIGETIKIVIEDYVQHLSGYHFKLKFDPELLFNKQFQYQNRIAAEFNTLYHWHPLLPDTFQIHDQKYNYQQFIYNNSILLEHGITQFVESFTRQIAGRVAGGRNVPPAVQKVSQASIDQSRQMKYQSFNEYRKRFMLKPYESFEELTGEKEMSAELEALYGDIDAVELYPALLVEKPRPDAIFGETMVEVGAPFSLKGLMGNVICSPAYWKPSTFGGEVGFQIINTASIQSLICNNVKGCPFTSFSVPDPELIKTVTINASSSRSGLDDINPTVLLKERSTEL
Description: (§1) The preparation of standards and samples and the completion of the assay were carried out following the manufacturer’s protocol. As described below, the completion of the assay required three main steps: the preparation of standards, the COX reaction and EIA.
(§2) The preparation of standards involved serial dilution of the prostaglandin (PG)-screening ELISA standard with ELISA buffer.
(§3) All tubes were incubated for 10 min at 37 °C. To initiate the reaction, arachidonic acid (10 µL) was added to each tube. This was incubated for 30 s at 37 °C before stannous chloride (30 µL) was added to stop enzyme catalysis. The tubes were removed from the water bath and vortexed, then incubated for five minutes at room temperature.
(§4) For EIA, ELISA buffer (100 µL) was added to non-specific binding (NSB) wells and ELISA buffer (50 µL) was added to maximum binding (B0) wells; 50 µL from each PG screening standard was added to the standard wells in duplicate. A background sample (50 µL) and COX 100% initial activity samples (50 µL) were added to the wells in duplicate. Each inhibitor sample (50 µL) was added to the wells in triplicate. PG screening acetylcholinesterase (AChE) tracer (50 µL) was added to all wells except for the total activity and blank wells. PG screening ELISA antiserum (50 µL) was added to each well except for the total activity, NSB and blank wells. The plate was covered with plastic film and incubated for 18 h at room temperature on an orbital shaker. The wells were emptied and rinsed with wash buffer five times. Ellman’s reagent (200 µL) was added to each well, followed by AChE tracer (5 µL) in the total activity well. The plate was covered with plastic film and left to develop in the dark using an orbital shaker at room temperature for one hour. The absorbance was recorded at 405 nm using a plate reader.

MIA pancreas [6] = assay: In vitro cytotoxicity MTT assay, MIA pancreas; type: cell-based; settings: 72 h drug exposure, n = 3
MCF-7 breast [7] = assay: In vitro cytotoxicity MTT assay, MCF-7 breast; type: cell-based; settings: Homo sapiens, MCF7, 72 h drug exposure, n = 3
[8] = system: HT29 colon cancer cell line; assay: In vitro cytotoxicity MTT assay, HT29 colon; type: cell-based; settings: Homo sapiens, HT-29, 72 h drug exposure, n = 3
[9] = system: cisplatin-resistant ADDP ovarian (subclone of A2780 cell line); assay: In vitro cytotoxicity MTT assay, cisplatin-resistant ADDP ovarian; type: cell-based
A431 skin [10] = assay: In vitro cytotoxicity MTT assay, A431 skin; type: cell-based; settings: Homo sapiens, A-431, 72 h drug exposure, n = 3
[11] = system: MCF10A breast cell line (non-tumour derived); assay: In vitro cytotoxicity MTT assay, non-tumour MCF10A breast; type: cell-based; settings: Homo sapiens, MCF-10A, MCF10A (non-cancerous), 72 h drug exposure, n = 3
[12] = system: Du145 prostate cancer cell line; assay: In vitro cytotoxicity MTT assay, Du145 prostate; type: cell-based; settings: Homo sapiens, DU-145, 72 h drug exposure, n = 3
BE2-C neuroblastoma [13] = assay: In vitro cytotoxicity MTT assay, BE2-C neuroblastoma; type: cell-based; settings: Homo sapiens, BE(2)-C, 72 h drug exposure, n = 3
human COX-2 [14] = biological target: T1, human COX-2
Description: as §1, §2, §3, §4

[15] = system: MCF10A breast cell line (non-tumour derived); settings: MTT, 72 h, ref [2] Macias et al., Eur. J. Chem. 2015; cited from earlier work
SJ-G2 glioblastoma [16] = settings: MTT, 72 h, ref [2] Macias et al., Eur. J. Chem. 2015; cited from earlier work
A431 skin [17] = settings: MTT, 72 h, ref [2] Macias et al., Eur. J. Chem. 2015; cited from earlier work
MCF-7 breast [18] = settings: MTT, 72 h, ref [2] Macias et al., Eur. J. Chem. 2015; cited from earlier work
[19] = system: HT29 colon cancer cell line; settings: MTT, 72 h, ref [2] Macias et al., Eur. J. Chem. 2015; cited from earlier work
[20] = system: A2780 (ovarian) and ADDP (cisplatin-resistant ovarian) cancer cell lines; assay: Cellular platinum accumulation by ICP-MS; type: cell-based; settings: 4 h
BE2-C neuroblastoma [21] = settings: MTT, 72 h, ref [2] Macias et al., Eur. J. Chem. 2015; cited from earlier work
ADDP cell line = assay: Cellular platinum accumulation by ICP-MS, ADDP; type: cell-based
[22] = system: Du145 prostate cancer cell line; settings: MTT, 72 h, ref [2] Macias et al., Eur. J. Chem. 2015; cited from earlier work
H460 lung [23] = settings: MTT, 72 h, ref [2] Macias et al., Eur. J. Chem. 2015; cited from earlier work
A2780 ovarian [24] = settings: MTT, 72 h, ref [2] Macias et al., Eur. J. Chem. 2015; cited from earlier work
U87 glioblastoma [25] = settings: MTT, 72 h, ref [2] Macias et al., Eur. J. Chem. 2015; cited from earlier work
MIA pancreas [26] = settings: MTT, 72 h, ref [2] Macias et al., Eur. J. Chem. 2015; cited from earlier work
[27] = system: cisplatin-resistant ADDP ovarian (subclone of A2780 cell line); settings: MTT, 72 h, ref [2] Macias et al., Eur. J. Chem. 2015; cited from earlier work

CC(=O)Oc1ccccc1C(=O)O [Aspirin, aspirin]
GI50 (U87 glioblastoma [1]): > 50 µM
GI50 (A2780 ovarian [2]): > 50 µM
GI50 (SJ-G2 glioblastoma [3]): > 50 µM
GI50 (H460 lung [4]): > 50 µM
inhibition at 700 µM (human COX-2 [5]): 19%
GI50 (MIA pancreas [6]): > 50 µM
GI50 (MCF-7 breast [7]): > 50 µM
GI50 [8]: > 50 µM
GI50 ([9]; Homo sapiens, A2780, ADDP (cisplatin-resistant), MTT, 72 h drug exposure, n = 3): > 50 µM
GI50 (A431 skin [10]): > 50 µM
GI50 [11]: > 50 µM
GI50 [12]: > 50 µM
GI50 (BE2-C neuroblastoma [13]): > 50 µM
COX-2 inhibition (human COX-2 [14]; at 7 µM): No inhibition
COX-2 inhibition (human COX-2 [14]; at 70 µM): No inhibition

N.N.[Cl][Pt][Cl] [Cisplatin, cisplatin]
GI50 [15]: 5.2 µM
GI50 (SJ-G2 glioblastoma [16]): 0.4 µM
GI50 (A431 skin [17]): 2.4 ± 0.3 µM
GI50 (MCF-7 breast [18]): 6.5 ± 0.8 µM
GI50 [19]: 11.3 µM
cellular platinum uptake (rank in words) [20]: lowest uptake
GI50 (BE2-C neuroblastoma [21]): 1.9 ± 0.2 µM
uptake level, fold lower than PHENSS(IV) (ADDP cell line): ~ two-fold
GI50 [22]: 1.2 ± 0.1 µM
GI50 (H460 lung [23]): 0.9 ± 0.2 µM
GI50 (A2780 ovarian [24]): 1 ± 0.1 µM
GI50 (U87 glioblastoma [25]): 3.8 µM
fold less active than PHENSS(IV) (GI50 values) ([9]; ADDP cell line): ~ 22 fold
fold decrease in activity in the cisplatin-resistant ADDP cell line compared to the A2780 cell line ([9]; ratio of GI50 values ADDP vs A2780): 28 fold
GI50 (MIA pancreas [26]): 7.5 µM
GI50 [27]: 28 µM
